Marks after values point to notes of the source that are not given here.
What was measured:
swiss albino mice [1] = test: Analgesic activity, acetic acid induced writhing method; assay type: in vivo
Procedure: The objective of the study was to evaluate the analgesic activity of the tested formulations of the compounds of the present invention. The test was conducted in Swiss albino mice using acetic acid induced writhing method. A total of 78 pre-screened mice (showing writhing response within 10 minutes*) were divided into 6 groups of 13 animals (6 males+7 females) each. The animals showing no writhing response within 10 mins were excluded. Diclofenac and pentazocine were used as positive controls. The formulations were given orally to the different groups of animals and the number of writhes counted for a period of 15 minutes, after the onset of writhes. If the onset of writhes occurred 30 after 10 minutes the number of writhes was recorded as V. The time of onset of writhes was recorded for each animal.
The control group received 1% gum acacia. The Groups 2, 3, and 4 received the formulations viz: Phen 2; Phen 3 and Phen 4 respectively. Diclofenac and pentazocine were used as positive control and given to groups 5 and 6 respectively. Diclofenac, a potent analgesic & anti-inflammatory agent; and 5 pentazocine an opoid analgesic were selected for comparative evaluation of test formulations. Both these drugs were administered to different groups of animals at the dose of 2 mg/kg. The group 1 (Phen 1) served as—Ve Control group in the study. Phen 5 (Diclofenac—2 mg/kg) and Positive Control: Phen 6 (Pentazocine 2 mg/kg) served as positive controls.
Human daily dose of 2400 mg (800 mg×3 times) was extrapolated to mice for Phen3 and human daily dose of 1200 mg (400 mg×3 times) was extrapolated to mice for Phen2 and Phen 4. The numbers of writhes observed are given below in Table 4 for each formulation.
Further, the evaluation of analgesic activity was carried out using variable dosage forms with different groups. A total of 100 animals (50 males+50 females) were selected randomly and distributed into ten main groups with 10 animals per group (5 M+5 F). Human daily dose of 2400 mg (800 mg×3 times) was extrapolated to mice for Phen 3 (Phenyramidol Racemic (Hydrochloride) and human daily dose of 1200 mg (400 mg×3 times), 1800 mg (400 mg×4.5 times), 2000 mg (400 mg×5 times) & 2400 mg (400 mg×6 times) was extrapolated to mice for Phen2 and Phen4 groups.
The control group 1 received 1% gum acacia and served as negative control group. Groups 2, 3, 4 & 5 received the formulation Phen2. Groups 6, 7, 8 & 9 received the formulation Phen 4 (Isomer 2) & Group 10 received the formulation Phen 3 (Racemic).
Further, one more experiment was done with phenyramidol hydrochloride to evaluate the analgesic activity at lesser dosage levels using acetic acid induced method. A total of 50 animals (25 males+25 females) were selected and randomly distributed into five main groups with 10 animals per group (5 M+5 F). 5 Human daily dose of 600 mg (400×1.5 times) & 1200 mg (800 mg×1.5 times) was extrapolated to mice for Phen 3 (Racemic) and human daily dose of 600 mg (400 mg×1.5 times) was extrapolated to mice for (−) Phenyramidol Hydrochloride & (+) Phenyramidol Hydrochloride and the results are discussed in Table 6.

swiss albino mice [2] = test: Skeletal muscle relaxant activity, Rota rod, second experiment (racemic, S isomer, R isomer); assay type: in vivo; conditions: confirmed by a Rota-rod method
Procedure: The evaluation of skeletal muscle relaxant activity of the formulations containing phenyramidol racemic, dextro and laevo isomers of oxalate salts in swiss albino mice were carried out using Rota rod apparatus. Each animal was trained only once per day for 5 days. […] Mouse was placed on rota rod only when it achieved the speed of 25 rpm. The ‘fall off time’ in seconds was noted down when the mouse falls from rotating rod. Endurance time was measured up to 120 seconds. The skeletal muscle relaxant activity was assessed using 0 hr, 1 hr, 2 hrs, 4 hrs and 6 hrs time points after the dose administration. A total of 100 mice were selected and randomly distributed into ten main groups with 10 animals per group.
Two efficacy variables were assessed during the experiment: 1. Percent animal falling from the rod was noted; 2. Endurance Time (ET): The time taken for a mouse to fall from the rod was taken as endurance time. The endurance time was taken up to 120 sec and treatment group ET was compared to normal control. These efficacy variables were assessed at five time points 0 hr, 1 hr, 2 hr, 4 hr, and 6 hr for each and every animal.
In another experiment, the studies have been extended to confirm the isomer which is having more skeletal muscle relaxant activity. Control group (R1) receiving only vehicle (water for injection) served as a placebo in the study. […]

Cl.O[C@H](CNc1ccccn1)c1ccccc1 [(+) Phenyramidol Hydrochloride, (S)-Phenyramidol Hydrochloride Salt]
Average no. of writhes (swiss albino mice [1]; Table 6, dose 600 mg (human daily dose extrapolated to mice), mean ± SD, n = 10): 5.00 ± 4.64*
analgesic activity by decrease in the number of writhes induced by acetic acid (swiss albino mice [1]; experiment of Table 6, lesser dosage levels): significant analgesic activity
skeletal muscle relaxant activity (summary statement) (swiss albino mice [2]): enhanced skeletal muscle relaxant activity
